From patent publication EP4477653A1 (Perha Pharmaceuticals, priority 2023, dated 2024)

Target: T1, human recombinant A3AR (expressed in HEK-293 cells) (Homo sapiens, UniProt P0DMS8)
T1 construct: host or cells: HEK-293 cells
T1 sequence (P0DMS8 1-318): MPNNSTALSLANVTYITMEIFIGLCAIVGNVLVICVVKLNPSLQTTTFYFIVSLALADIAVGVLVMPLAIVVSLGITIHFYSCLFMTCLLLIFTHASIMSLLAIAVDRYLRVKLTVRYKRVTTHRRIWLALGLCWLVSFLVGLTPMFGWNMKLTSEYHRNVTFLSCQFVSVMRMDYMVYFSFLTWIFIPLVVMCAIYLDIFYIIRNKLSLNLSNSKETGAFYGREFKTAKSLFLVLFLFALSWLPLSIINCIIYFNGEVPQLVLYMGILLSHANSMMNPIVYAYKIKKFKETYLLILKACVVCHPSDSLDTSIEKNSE
Experiment: Adenosine receptors antagonism assay (Eurofins), [125I]-AB-MECA radioligand competition
Format: binding
Conditions: [125I]-AB-MECA 0.15 nM, r.t., 120 min; IC50 from dose-response curves; read-out: Potency Class A3AR
Protocol: Assays were carried out at r.t. for 120 min. Compounds were initially tested at three concentrations (0.01, 0.1, 1 µM). […] IC50 values, which is the concentration causing a half-maximal inhibition of control specific binding, and Hill coefficients (nH) were determined by non-linear regression analysis of the competition curves generated with mean replicate values using Hill equation curve fitting. The inhibition constants (Ki) were calculated using the Cheng Prusoff equation.

Row | SMILES | IC50 [nM]
1 | CCC(CC)Nc1cc(NC2CCc3ccccc32)c2nnc(C(C)C)n2n1 (racemic) [compound 81, N6-(1-ethylpropyl)-N8-indan-1-yl-3-isopropyl-[1,2,4]triazolo[4,3-b]pyridazine-6,8-diamine] | 10 to 100
2 | CCC(C)Nc1cc(NCc2ccccn2)c2nnc(C3CC3)n2n1 (racemic) [compound 193, N6-(sec-butyl)-3-cyclopropyl-N8-(pyridin-2-ylmethyl)-[1,2,4]triazolo[4,3-b]pyridazine-6,8-diamine] | 1 to 10
3 | CC(C)c1nnc2c(NCc3ccccc3)cc(N[C@H](CO)[C@@H](C)O)nn12 (stereo in doubt) [compound 5, (2R,3R)-2-[[8-(benzylamino)-3-isopropyl-[1,2,4]triazolo[4,3-b]pyridazin-6-yl]amino]butane-1,3-diol] | 100 to 1000
4 | CC(C)c1nnc2c(NCc3ccccc3)cc(NCCOCCOCCN)nn12 [compound 8, N6-[2-[2-(2-aminoethoxy)ethoxy]ethyl]-N8-benzyl-3-isopropyl-[1,2,4]triazolo[4,3-b]pyridazine-6,8-diamine] | 100 to 1000
5 | COCCCNc1cc(NCc2ccccc2)c2nnc(C(C)C)n2n1 [compound 10, N8-benzyl-3-isopropyl-N6-(3-methoxypropyl)-[1,2,4]triazolo[4,3-b]pyridazine-6,8-diamine] | 10 to 100
6 | COCCCCNc1cc(NCc2ccccc2)c2nnc(C(C)C)n2n1 [compound 14, N8-benzyl-3-isopropyl-N6-(4-methoxybutyl)-[1,2,4]triazolo[4,3-b]pyridazine-6,8-diamine] | 10 to 100
7 | CC(C)c1nnc2c(NCc3ccccc3)cc(NCCCCCO)nn12 [compound 15, 5-[[8-(benzylamino)-3-isopropyl-[1,2,4]triazolo[4,3-b]pyridazin-6-yl]amino]pentan-1-ol] | 100 to 1000
8 | COCCCCCNc1cc(NCc2ccccc2)c2nnc(C(C)C)n2n1 [compound 16, N8-benzyl-3-isopropyl-N6-(5-methoxypentyl)-[1,2,4]triazolo[4,3-b]pyridazine-6,8-diamine] | 100 to 1000
9 | CC(=O)NCCCNc1cc(NCc2ccccc2)c2nnc(C(C)C)n2n1 [compound 24, N-[3-[[8-(benzylamino)-3-isopropyl-[1,2,4]triazolo[4,3-b]pyridazin-6-yl]amino]propyl]acetamide] | 100 to 1000
10 | CNC(=O)CCNc1cc(NCc2ccccc2)c2nnc(C(C)C)n2n1 [compound 26, 3-[[8-(benzylamino)-3-isopropyl-[1,2,4]triazolo[4,3-b]pyridazin-6-yl]amino]-N-methyl-propanamide] | 10 to 100
11 | CC(C)c1nnc2c(NCc3ccccc3)cc(NCCC(=O)N(C)C)nn12 [compound 27, 3-[[8-(benzylamino)-3-isopropyl-[1,2,4]triazolo[4,3-b]pyridazin-6-yl]amino]-N,N-dimethyl-propanamide] | 100 to 1000
12 | COC(=O)CCNc1cc(NCc2ccccc2)c2nnc(C(C)C)n2n1 [compound 28, methyl 3-[[8-(benzylamino)-3-isopropyl-[1,2,4]triazolo[4,3-b]pyridazin-6-yl]amino]propanoate] | 10 to 100
13 | CCOC(=O)CCNc1cc(NCc2ccccc2)c2nnc(C(C)C)n2n1 [compound 29, ethyl 3-[[8-(benzylamino)-3-isopropyl-[1,2,4]triazolo[4,3-b]pyridazin-6-yl]amino]propanoate] | 10 to 100
14 | CC[C@H](CO)Nc1cc(NCc2ccccc2)c2nnc(C3CC3)n2n1 [compound 30, (2R)-2-[[8-(benzylamino)-3-cyclopropyl-[1,2,4]triazolo[4,3-b]pyridazin-6-yl]amino]butan-1-ol] | 100 to 1000
15 | COCCCNc1cc(NCc2ccccc2)c2nnc(C3CC3)n2n1 [compound 31, N8-benzyl-3-cyclopropyl-N6-(3-methoxypropyl)-[1,2,4]triazolo[4,3-b]pyridazine-6,8-diamine] | 10 to 100
16 | COCCCNc1cc(NCc2ccccc2)c2nnc(C)n2n1 [compound 32, N8-benzyl-N6-(3-methoxypropyl)-3-methyl-[1,2,4]triazolo[4,3-b]pyridazine-6,8-diamine] | 100 to 1000
17 | COCCCNc1cc(NCc2ccccc2)c2nnc(-c3ccccc3)n2n1 [compound 34, N8-benzyl-N6-(3-methoxypropyl)-3-phenyl-[1,2,4]triazolo[4,3-b]pyridazine-6,8-diamine] | 100 to 1000
18 | CC[C@H](CO)Nc1cc(NCc2ccccc2)c2nnc(-c3ccccc3)n2n1 [compound 35, (2R)-2-[[8-(benzylamino)-3-phenyl-[1,2,4]triazolo[4,3-b]pyridazin-6-yl]amino]butan-1-ol] | 10 to 100
19 | COCCCNc1cc(NCc2ccccc2)c2nnc(C(F)(F)F)n2n1 [compound 36, N8-benzyl-N6-(3-methoxypropyl)-3-(trifluoromethyl)-[1,2,4]triazolo[4,3-b]pyridazine-6,8-diamine] | 10 to 100
20 | CC[C@H](CO)Nc1cc(NCc2ccccc2)c2nnc(C(F)(F)F)n2n1 [compound 37, (2R)-2-[[8-(benzylamino)-3-(trifluoromethyl)-[1,2,4]triazolo[4,3-b]pyridazin-6-yl]amino]butan-1-ol] | 10 to 100
21 | CC[C@H](CO)Nc1cc(NCc2ccccc2O)c2nnc(C(C)C)n2n1 [compound 38, 2-[[[6-[[(1R)-1-(hydroxymethyl)propyl]amino]-3-isopropyl-[1,2,4]triazolo[4,3-b]pyridazin-8-yl]amino]methyl]phenol] | 1 to 10
22 | COCCCNc1cc(NCc2ccccc2O)c2nnc(C(C)C)n2n1 [compound 39, 2-[[[3-isopropyl-6-(3-methoxypropylamino)-[1,2,4]triazolo[4,3-b]pyridazin-8-yl]amino]methyl]phenol] | 10 to 100
23 | CCC(CC)Nc1cc(NCc2ccccc2O)c2nnc(C(C)C)n2n1 [compound 40, 2-[[[6-(1-ethylpropylamino)-3-isopropyl-[1,2,4]triazolo[4,3-b]pyridazin-8-yl]amino]methyl]phenol] | 1 to 10
24 | CCC(CC)Nc1cc(NCc2cccc(O)c2)c2nnc(C(C)C)n2n1 [compound 41, 3-[[[6-(1-ethylpropylamino)-3-isopropyl-[1,2,4]triazolo[4,3-b]pyridazin-8-yl]amino]methyl]phenol] | 1 to 10

Other lines, results leading:

Row | IC50 [nM] | SMILES
25 | 10 to 100 | CC[C@H](CO)Nc1cc(NCc2ccccc2)c2nnc(C(C)C)n2n1 [compound 1, (2R)-2-[[8-(benzylamino)-3-isopropyl-[1,2,4]triazolo[4,3-b]pyridazin-6-yl]amino]butan-1-ol]
26 | 10 to 100 | CC[C@@H](CO)Nc1cc(NCc2ccccc2)c2nnc(C(C)C)n2n1 [compound 2, (2S)-2-[[8-(benzylamino)-3-isopropyl-[1,2,4]triazolo[4,3-b]pyridazin-6-yl]amino]butan-1-ol]
27 | 100 to 1000 | CC(C)c1nnc2c(NCc3ccccc3)cc(NC(CO)CO)nn12 [compound 3, 2-[[8-(benzylamino)-3-isopropyl-[1,2,4]triazolo[4,3-b]pyridazin-6-yl]amino]propane-1,3-diol]
28 | 100 to 1000 | CC(C)c1nnc2c(NCc3ccccc3)cc(N3CCOCC3)nn12 [compound 6, N-benzyl-3-isopropyl-6-morpholino-[1,2,4]triazolo[4,3-b]pyridazin-8-amine]
29 | 100 to 1000 | CC(C)c1nnc2c(NCc3ccccc3)cc(NCCCO)nn12 [compound 9, 3-[[8-(benzylamino)-3-isopropyl-[1,2,4]triazolo[4,3-b]pyridazin-6-yl]amino]propan-1-ol]
30 | 100 to 1000 | CC(C)c1nnc2c(NCc3ccccc3)cc(NCCO)nn12 [compound 11, 2-[[8-(benzylamino)-3-isopropyl-[1,2,4]triazolo[4,3-b]pyridazin-6-yl]amino]ethanol]
31 | 100 to 1000 | COCCNc1cc(NCc2ccccc2)c2nnc(C(C)C)n2n1 [compound 12, N8-benzyl-3-isopropyl-N6-(2-methoxyethyl)-[1,2,4]triazolo[4,3-b]pyridazine-6,8-diamine]
32 | 10 to 100 | CC(C)c1nnc2c(NCc3ccccc3)cc(NCCCCO)nn12 [compound 13, 4-[[8-(benzylamino)-3-isopropyl-[1,2,4]triazolo[4,3-b]pyridazin-6-yl]amino]butan-1-ol]
33 | 1 to 10 | CCC(CC)Nc1cc(NCc2ccccc2)c2nnc(C(C)C)n2n1 [compound 18, N8-benzyl-N6-(1-ethylpropyl)-3-isopropyl-[1,2,4]triazolo[4,3-b]pyridazine-6,8-diamine]
34 | 10 to 100 | CC(C)c1nnc2c(NCc3ccccc3)cc(N[C@@H]3CCOC3)nn12 [compound 19, N8-benzyl-3-isopropyl-N6-[(3R)-tetrahydrofuran-3-yl]-[1,2,4]triazolo[4,3-b]pyridazine-6,8-diamine]
35 | 10 to 100 | CC(C)c1nnc2c(NCc3ccccc3)cc(N[C@@H]3CCCOC3)nn12 [compound 21, N8-benzyl-3-isopropyl-N6-[(3R)-tetrahydropyran-3-yl]-[1,2,4]triazolo[4,3-b]pyridazine-6,8-diamine]
36 | 10 to 100 | CC(C)c1nnc2c(NCc3ccccc3)cc(N[C@H]3CCCOC3)nn12 [compound 22, N8-benzyl-3-isopropyl-N6-[(3S)-tetrahydropyran-3-yl]-[1,2,4]triazolo[4,3-b]pyridazine-6,8-diamine]
37 | 10 to 100 | CC(C)c1nnc2c(NCc3ccccc3)cc(NC3CCOCC3)nn12 [compound 23, N8-benzyl-3-isopropyl-N6-tetrahydropyran-4-yl-[1,2,4]triazolo[4,3-b]pyridazine-6,8-diamine]
38 | 100 to 1000 | CC(C)c1nnc2c(NCc3ccccc3)cc(NCCC(N)=O)nn12 [compound 25, 3-[[8-(benzylamino)-3-isopropyl-[1,2,4]triazolo[4,3-b]pyridazin-6-yl]amino]propanamide]
